What was measured:
Aedes aegypti = test: Larvicidal activity against Aedes aegypti (kill after 24 hours, LC50, relative to Resmethrin); assay type: in vivo; conditions: Aedes aegypti 3 day old larvae, from LC50
Experimental: (§1) The insecticidal activities of the compounds of the Examples has been shown by the following tests in four species of insects, namely Aedes aegypti, Musca domestica, Blattella germanica, and Tribolium castaneum.
A 0.2 cm^3 sample of a solution of test compound in AR acetone was applied to water (200 cm^3) containing 20 (3 day old) larvae. Kill was recorded after 24 hours. Solutions of different concentration were tested from which the concentration of solution which gives 50% kill (LC50) was determined.
(§2) The results are all expressed as activities relative to the activity of Resmathrin (assigned activity=100), determined by the methods described. [formula]

Blattella germanica = test: Topical activity against Blattella germanica (24 hours, LC50, relative to Resmethrin); assay type: in vivo; conditions: Blattella germanica 1-4 week old adult males, from LC50
Experimental: as §1
A 2 μl drop of a solution of the test compound in AR acetone was applied between the rear coxae of 1-4 week old adult males. Knockdown was recorded after 24 hours. Solutions of different concentration were tested from which the concentration of solution which gives 50% kill (LC50) was determined.
as §2

Musca domestica [1] = test: Topical activity against Musca domestica, compound alone (24 hours, LC50, relative to Resmethrin); assay type: in vivo; conditions: Musca domestica 3-day old adult females, without synergist, from LC50
Experimental: as §1
(§3) (i) A 1 μl drop of a solution of test compound in AR acetone (high purity acetone) was applied to the dorsal thorax of 3-day old adult females. Knockdown was recorded after 24 hours. Solutions of different concentration were tested from which the concentration of solution and therefore the amount of compound which gives 50% kill (LC50) was determined.
as §2

Musca domestica [2] = test: Topical activity against Musca domestica with synergist piperonyl butoxide (24 hours, LC50, relative to Resmethrin); assay type: in vivo; conditions: Musca domestica 3-day old adult females, with 0.5% w/v piperonyl butoxide, from LC50
Experimental: as §1, §3
(ii) Similar tests were carried out with the amendment that to each test solution, 0.5% w/v of commercial insecticide synergist, piperonyl butoxide, was added.
as §2

[3] = Photostability of a deposit exposed to a light source; assay type: physicochemical; conditions: times greater than Resmethrin
Source text: Photostability is an important feature when the insecticide is applied to foliage. […] A deposit of selected Examples and Resmethrin was exposed to a light source and tested at increasing time intervals.

Tribolium castaneum = test: Topical activity against Tribolium castaneum (knockdown after 48 hours, LD50, relative to Resmethrin); assay type: in vivo; conditions: Tribolium castaneum adults, from LD50
Experimental: as §1
A 1 μl drop of a solution of test compound in AR acetone was applied topically to adult insects. Knockdown was recorded after 48 hours. Solutions of different concentrations were tested from which the concentration of solution which gives 50% knockdown (LD50) was determined.
as §2

Megoura vicae = test: Knockdown of Megoura vicae (dip test); assay type: in vivo; conditions: Megoura vicae adults, knockdown after 24 hours
Source text: (§4) The activities of some of the compounds of the Examples has been shown in the following tests in three species of phytophagous arthropods, namely Megoura vicae, Plutella xylostella, Tetranychus cinnabarinus.
(§5) Aqueous suspensions of test compound were made by adding a solution of test compound in AR acetone to a solution of TWEEN 80 (200 p.p.m.) in water.
Adult insects were dipped individually for 4 seconds in the aqueous suspension of test compound and then placed on a filter paper in a Petri dish (9.0 cm diameter) with a p.t.f.e. rim. A 5.0 cm long piece of broad bean stem was added and the lid was put on. Knockdown was recorded after 24 hours.

Tetranychus cinnabarinus = test: Activity against Tetranychus cinnabarinus (dwarf French bean leaf dip test); assay type: in vivo; conditions: foliar, Tetranychus cinnabarinus adult mites, 48 hours, read-out: Tetranychus % KD at 500.0 ppm
Source text: as §4, §5
The two primary leaves of dwarf French beans were reduced to 2.5 cm squares, and they were infested with ca. 20 adult mites. The leaves were then dipped for 4 seconds in the aqueous suspension of the test compound and allowed to dry. Adult mortality was recorded after 48 hours.

Plutella xylostella = test: Knockdown of Plutella xylostella (cabbage leaf dip test); assay type: in vivo; conditions: foliar, Plutella xylostella 3rd instar larvae, knockdown after 24 hours, read-out: Plutella % KD at 25.0 ppm
Source text: as §4, §5
A 9.0 cm square of cabbage leaf was dipped for 4 seconds in the aqueous suspension of the test compound, and allowed to dry. The leaf was placed on filter paper in a Petri dish (9.0 cm). Five 3rd instar larvae were placed on the leaf, and the dish was placed in a polythene bag containing a wet cotton-wool pad. Knockdown was recorded after 24 hours.

| SMILES | photostability half-life relative to Resmethrin [3] | Megoura % KD at 1.0 ppm (Megoura vicae) | Activity Relative to Resmethrin = 100, Aedes (Aedes aegypti) | Activity Relative to Resmethrin = 100, Blattella (Blattella germanica) | Activity Relative to Resmethrin = 100, Musca Alone (Musca domestica [1]) | Activity Relative to Resmethrin = 100, Musca with Synergist (Musca domestica [2]) | Activity Relative to Resmethrin = 100, Tribolium (Tribolium castaneum) | mortality at 500 ppm (Tetranychus cinnabarinus) | mortality at 25 ppm (Plutella xylostella) |
| --- | --- | --- | --- | --- | --- | --- | --- | --- | --- |
| CC(C)C(C(=O)OC(C#N)c1cccc(Oc2ccccc2)c1)c1ccc2sccc2c1 (stereo not drawn) [Example 4, α-Cyano-m-phenoxybenzyl α-isopropylbenzo(b)thiophene-5-acetate] | 21.5 times | – | 105 | 62 | 16 | 400 | – | – | – |
| CC(C)C(C(=O)OC(C#N)c1cccc(Oc2ccccc2)c1)c1ccc2ccoc2c1 (stereo not drawn) [Example 2, α-Cyano-m-phenoxybenzyl α-isopropylbenzofuran-6-acetate] | 17.5 times | 97.5% | 286 | 459 | 123 | 606 | 583 | 83.7% | 97.5% |
| CC(C)C(C(=O)OC(C#N)c1cccc(Oc2ccccc2)c1)c1ccc2c(Cl)coc2c1 (stereo not drawn) [Example 7, α-Cyano-m-phenoxybenzyl 3-chloro-α-isopropylbenzofuran-6-acetate] | – | 98.3% | 250 | 1240 | 133 | 6060 | 411 | 88.8% | 100% |
| CC(C)C(C(=O)OCc1cccc(Oc2ccccc2)c1)c1ccc2c(Cl)coc2c1 (stereo not drawn) [Example 6, m-Phenoxybenzyl 3-chloro-α-isopropylbenzofuran-6-acetate] | – | – | 151 | – | 20 | 110 | 80.4 | – | – |
| CC(C)C(C(=O)OCc1cccc(Oc2ccccc2)c1)c1ccc2sccc2c1 (stereo not drawn) [Example 3, m-Phenoxybenzyl α-isopropylbenzo(b)thiophene-5-acetate] | – | 61.25% | 6.5 | 62 | 17 | 100 | 29.2 | 76.7% | 47.5% |
| CC(C)C(C(=O)OCc1cccc(Oc2ccccc2)c1)c1ccc2ccoc2c1 (stereo not drawn) [Example 1, m-Phenoxybenzyl α-isopropylbenzofuran-6-acetate] | – | 63.7% | 182 | 197 | 88 | 87 | 102.9 | 65.5% | 97.5% |
| CC(C)C(C(=O)OCc1cccc(Oc2ccccc2)c1)c1cccc2occc12 (stereo not drawn) [Example 5, m-Phenoxybenzyl α-isopropylbenzofuran-4-acetate] | – | 32.5% | 211 | 20.7 | 9 | 27 | 50 | 33.2% | 57.5% |

The next lines start with results.

| photostability half-life relative to Resmethrin [3] | Megoura % KD at 1.0 ppm (Megoura vicae) | SMILES | Activity Relative to Resmethrin = 100, Aedes (Aedes aegypti) | Activity Relative to Resmethrin = 100, Blattella (Blattella germanica) | Activity Relative to Resmethrin = 100, Musca Alone (Musca domestica [1]) | Activity Relative to Resmethrin = 100, Musca with Synergist (Musca domestica [2]) | Activity Relative to Resmethrin = 100, Tribolium (Tribolium castaneum) | mortality at 500 ppm (Tetranychus cinnabarinus) | mortality at 25 ppm (Plutella xylostella) |
| --- | --- | --- | --- | --- | --- | --- | --- | --- | --- |
| – | 15% | CC(C)C(C(=O)OC(C#N)c1cccc(Oc2ccccc2)c1)c1ccc(Cl)c2occc12 (stereo not drawn) [Example 12, α-Cyano-m-phenoxybenzyl 7-chloro-α-isopropylbenzofuran-4-acetate] | 417 | 207 | 140 | 454 | 100 | < 10% | – |
| – | 66.9% | CC(C)C(C(=O)OC(C#N)c1cccc(Oc2ccccc2)c1)c1cccc2occc12 (stereo not drawn) [Example 8, α-Cyano-m-phenoxybenzyl α-isopropylbenzofuran-4-acetate] | 108 | 206 | 125 | 926 | 194 | 100% | 87.5% |
| – | 0% | CC(C)C(C(=O)OC(C#N)c1cccc(Oc2ccccc2)c1)c1ccc2c(c1)CCO2 (stereo not drawn) [Example 10, α-Cyano-m-phenoxybenzyl 2,3-dihydro-α-isopropylbenzofuran-5-acetate] | 286 | 207 | 18 | 575 | 159 | < 20% | – |
| – | 86.6% | CC(C)C(C(=O)OC(C#N)c1cccc(Oc2ccccc2)c1)c1ccc(Cl)c2oc(Br)cc12 (stereo not drawn) [Example 13, α-Cyano-m-phenoxybenzyl 2-bromo-7-chloro-α-isopropylbenzofuran-4-acetate] | 267 | < 10 | 10 | 417 | < 2 | < 10% | – |
| – | 35% | CC(C)C(C(=O)OC(C#N)c1cccc(Oc2ccccc2)c1)c1ccc2cc(Br)oc2c1 (stereo not drawn) [Example 11, α-Cyano-m-phenoxybenzyl 2-bromo-α-isopropylbenzofuran-6-acetate] | 160 | 207 | 68 | 417 | 88 | < 20% | – |
| – | 93.3% | Cc1oc2cc(C(C(=O)OC(C#N)c3cccc(Oc4ccccc4)c3)C(C)C)ccc2c1C (stereo not drawn) [Example 14, α-Cyano-m-phenoxybenzyl 2,3-dimethyl-α-isopropylbenzofuran-6-acetate] | 200 | 62 | 12 | 179 | < 17.5 | 46.7% | – |
| – | 90% | Cc1oc2cc(C(C(=O)OCc3cccc(Oc4ccccc4)c3)C(C)C)ccc2c1C (stereo not drawn) [Example 15, m-Phenoxybenzyl 2,3-dimethyl-α-isopropylbenzofuran-6-acetate] | 118 | < 10 | 1 | 24 | 4.7 | 100% | – |
| – | 93.75% | CC(C)C(C(=O)OC(C#N)c1cccc(Oc2ccccc2)c1)c1ccc2occc2c1 (stereo not drawn) [Example 9, α-Cyano-m-phenoxybenzyl α-isopropylbenzofuran-5-acetate] | 174 | 1378 | 186 | 333 | 389 | 81.7% | 90% |
